The test system of series [1] is EMT-6 cells. The experiment in a line: TUNEL staining of DNA fragmentation in EMT-6 cells (microscopy, flow cytometry). The format is cell-based, mouse. The conditions noted are these: for TUNEL positive cells (flow cytometry): untreated control 2%; for DNA fragmentation, TUNEL staining in nuclei (fluorescence microscopy): EMT-6, WC-II-26 40 μM 48 h, SV119 100 μM 16 h, RHM-I-138 40 μM 16 h. The protocol:
Detection of apoptosis by fluorescence microscopy. The DNA fragmentation occurring during apoptosis was detected by the TUNEL staining method using the in situ cell death detection kit purchased from Roche Applied Science (Indianapolis, Ind.). Briefly, after treatment of EMT-6 cells with the sigma ligands, cells were fixed for 1 hour with 4% paraformaldehyde in phosphate buffered saline at room temperature and permeabilized with 0.1% Triton X-100 for 2 minutes on ice. The cells were then labeled by incubation with the TUNEL reaction mixture for 1 hour at 37° C. and analyzed using a Nikon inverted fluorescence microscope with a FITC filter.
Detection and quantification of apoptosis by flow cytometry. The early stages of apoptosis are characterized by translocation of phosphatidyl serine (PS) from the inner surface of the plasma membrane to the outer surface of the membrane. Annexin V, a protein with high affinity for PS, was used to detect the externalization of PS. In these experiments cell death was quantified flow cytometrically using both an annexin V assay (Apoptosis Detection Kit, R &D Systems, Minneapolis, Minn.) and a TUNEL assay (Apodirect Kit, BD Biosciences Pharmingen, San Diego, Calif.). All of the data was collected and analyzed using a FACS scan flow cytometer (Becton Dickinson, Fullerton, Calif.).
To determine if the mechanism by which our σ2 selective ligands kill EMT-6 cells involves apoptosis, cells incubated with σ2 ligands were assayed by the TUNEL method. […] In these experiments, DNA fragmentation was detected by TUNEL staining and fluorescence microscopy (FIG. 6). Panel A: untreated cells. Panel B: Cells treated for 48 h with WC-II-26 (40 μM). Panel C: Cells treated for 16 h with SV119 (100 μM). Panel D: Cells treated for 16 h with RHM-I-138 (40 μM). […] At the designated times after treatment with WC-II-26, SV119 and RHM-I-138, TUNEL positive cells increased from 2% for the untreated control cells to 46%, 37% and 40%, respectively (FIG. 6B).

In series [2] the test system is caspase-3/7. The experiment in a line: Caspase-3/7 whole cell assay in EMT-6 cells. The conditions noted are these: EMT-6, 40 μM, 24 h. The format is cell-based, mouse. The protocol: Detection of intracellular cellular caspase-3/7 activity. The activation of endogenous caspase-3/7 by the sigma ligands was measured using the CellProbe HT caspase-3/7 whole cell assay (Beckman Coulter, Fullerton, Calif.). The cell permeable, nonfluorescent bisamide substrate, Z-DEVD-R110, was added to the intact cells to detect apoptosis. Upon specific cleavage by caspase-3/7, Z-DEVD-R110 is converted to a fluorescent compound, and the fluorescent signal can be measured as follows. After adding the substrate, Z-DEVD-R110, to the cells treated with a sigma ligand, the plate was incubated for an additional 1.5-2 hour, and the resulting fluorescence measured using a Victor 3 microplate fluorometer at excitation and emission wavelengths of 485 nm and 535 nm, respectively.
In these experiments, to assess whether caspase-like activity was involved in the cytotoxic pathway, a caspase-3/7 whole cell assay was performed. This assay has advantages over other cell-based assays which use a cell lysate to monitor the activity of caspase-3/7. By not disrupting the cells, the whole cell assay tends to minimize the background noise contributed by non-specific protease activity in the cell lysates. Consequently, a greater specificity for the caspase-3/7 activity can be achieved with the whole cell assay. […] The accumulation of the fluorescent product was quantified using a fluorescence microplate reader. […]

The subject of series [3] is pancreatic cancer cell lines (Panc-02, CFPAC-1, AsPC-1, Panc-1). The experiment in a line: Apoptosis in pancreas cancer cell lines (TUNEL / cleaved caspase-3, flow cytometry). In kind it is cell-based, mouse, human. To be noted: 24 hours incubation. The protocol:
Tumor cells were seeded at a density of approximately 0.2×10^6 cells per well in 12-well plates in 1.0 ml culture medium. Cells were split and pre-incubated at 37° C. in humidified 5% CO2 for more than 24 hours (Panc-02) and 48 hours (CFPAC-1, AsPC-1, Panc-1) to insure uniform growth conditions. Compounds were dissolved in DMSO and added to the culture medium at the concentrations indicated. The final concentration of DMSO in the cell culture medium was less than 1%. The cells were then incubated for 24 hours at 37° C. in humidified 5% CO2. The extent of apoptosis was subsequently measured as previously reported (Guelen, L., et al., Oncogene 2004, 23: 1153-1165). Briefly, staining was performed on trypsin-EDTA treated cultures that had been fixed with 1% paraformaldehyde and 90% methanol. Cell pellets were resuspended in TUNEL reagent (APO-BRDU kit, San Diego, Calif.) or cleaved caspase-3 antibody (Cell Signaling Technology, Inc. Boston, Mass.) and incubated overnight at room temperature (TUNEL) or 4° C. (cleaved caspase-3). After washing, cells were resuspended in fluorescein antibody or 7-AAD buffer and incubated for 1 hour at room temperature. Cell-associated fluorescence was determined using a flow cytometry (FACScan, BD Biosciences) and analyzed with CellQuest software (BD Biosciences).
At the highest dose tested (10 μM), all sigma-2 receptor ligands induced an additional 10-20% of the cells to undergo apoptosis (FIG. 15A). […] The pan-caspase inhibitor (Z-VAD-fmk) and caspase-3/7 inhibitor (DEVD-CHO) prevented sigma-2 receptor ligand-induced apoptosis in panc-02 cells, while the caspase-1 inhibitor (YVAD-CHO) had no effect (FIG. 15B).
On the technique in general: A flow cytometer gives signals particle by particle.

Series [4] deals with Panc-02 tumor allografts. Description: In vivo apoptosis (FACS, active caspase-3) in tumor and organs of Panc-02 bearing mice.
Description: Female C57BL/6 mice (8-12 weeks old) were purchased from the NCI and acclimated for at least 1 week before tumor implantation. All mice were injected in the right flank with 200 μl of a single cell suspension containing 1.0×10^6 Panc-02 cells. Treatment of the tumors started 2 weeks after tumor implantation when their size reached a mean diameter of 5-8 mm. To evaluate the effect of sigma-2 receptor ligands both systemically and on tumor in vivo, several mice were sacrificed after a single treatment. Necropsy was performed and single cell suspensions were prepared from retrieved organs. The extent of apoptosis in these cells was measured by FACS (described above).
The subject of series [5] is EMT-6 cells. Description: TUNEL assay, enhancement of Dox-induced apoptosis in EMT-6 cells. The format is cell-based, mouse. The procedure: In these experiments, a TUNEL assay was used to detect apoptotic cells with damaged DNA strands. […] Furthermore, EMT-6 cells treated with Dox at 30 nM yielded only 10% TUNEL-positive cells. However, when EMT-6 cells were treated with 2 μM WC-II-26 plus 30 nM Dox, the percentage of TUNEL-positive cells rose to 43.3%.

Series [6] is described as follows: Toxicity in treated mice (serum biochemistry, immunohistochemistry).
Description: Female C57BL/6 mice (8-12 weeks old) were purchased from the NCI and acclimated for at least 1 week before tumor implantation. […] For the survival study, mice (N=10 per group) were treated with sigma-2 receptor ligand at the stated concentration or vehicle control once a day for 5 days.

For the molecule `O[C@@H](CN1C2CCC1CC(c1ccccc1)C2)c1cccc(Br)c1` (stereo partly shown) [RHM-I-138], the “TUNEL positive cells (flow cytometry)” value in series [1] (EMT-6, 40 μM, 16 h) came out at 40%. Also, the “DNA fragmentation, TUNEL staining in nuclei (fluorescence microscopy)” value (“DNA fragmentation, TUNEL staining” for short) in series [1] was “positive TUNEL staining”. Also, in series [2], the “increase of endogenous caspase-3/7 activity compared with untreated cells” value is recorded as 2 fold.
On to `COc1ccc(C)cc1NC(=O)OC1CC2CCCC(C1)N2CCCCCCN` (stereo not shown) [SV119], for which, in series [3], the “apoptosis in all pancreas cancer cell lines tested” value is “dose-dependent apoptosis”. In addition, the “TUNEL positive cells (flow cytometry)” value in series [1] (EMT-6, 100 μM, 16 h) turned out to be 37%. For the same molecule, the “DNA fragmentation, TUNEL staining” value in series [1] is recorded as “positive TUNEL staining”. The “increase of endogenous caspase-3/7 activity compared with untreated cells” value in series [2] is on record as 2 fold.
On to `COc1ccc(C)cc1NC(=O)O[C@H]1C[C@H]2CCC[C@@H](C1)N2Cc1ccc(N(C)C)cc1` [WC-II-26], for which, in series [4] (single 2 mg dose, Panc-02 tumor allografts, p<0.0001), the “tumor cells active caspase-3 positive” value is “up to 50%”. Also, in series [4] (systemic administration), the “apoptosis in pancreas and livers” value was below 10%. In addition, the “apoptosis in brain, lung, kidney or spleen (active caspase-3, FACS)” value in series [4] (systemic administration, any of the concentrations tested) is listed as “did not induce apoptosis”. The “apoptosis in all pancreas cancer cell lines tested” value in series [3] was “dose-dependent apoptosis”. For the same molecule, in series [1] (EMT-6, 40 μM, 48 h), the “TUNEL positive cells (flow cytometry)” value is reported as 46%. Further, in series [1], the “DNA fragmentation, TUNEL staining” value is recorded as “positive TUNEL staining”. Further, the TUNEL-positive cells result in series [5] (EMT-6, 2 μM WC-II-26 alone) was “less than 5%”; in series [5] (EMT-6, 2 μM WC-II-26 plus 30 nM Dox), 43.3%. Further, in series [6] (50 or 100 mg/kg once a day for five days), the “acute, systemic toxicity based on blood chemistry parameters” value was “no acute, systemic toxicity”. For the same molecule, in series [6] (after WC26 treatment (data not shown)), the “acute toxicity on immunohistochemical evaluation of normal tissues” value is “no acute toxicity”. The “toxicity in serum biochemistry data” value in series [6] (after systemic administration) is “no apparent toxicity”. The “effect on serum biochemistry at the highest dose tested” value in series [6] (values still within reference ranges) was “elevated AST and depressed creatinine and glucose levels”.

The values are drawn from US8168650B2, “Therapeutic uses of bicyclic ligands of sigma 2 receptor” (priority 2006, dated 2012).
